Results from PubChem BioAssay AID248 (DTP/NCI, 2004).
Several values for one entry are separate records, joined by “and”; a condition that tells them apart may be missing. Equal values may be shown once. Toxic doses and inconclusive results are not listed. Cut-off read from the data, not from the text of the source: active = T/C of 150% or more; inactive = T/C below 125%.

Test system: L1210 leukemia ip in BDF1 mice, survival T/C
Experiment: NCI In Vivo Anticancer Drug Screen. Data for tumor model L1210 Leukemia (intraperitoneal) in B6D2F1 (BDF1) mice
Conditions: endpoint: mean survival time, higher = longer survival
Method in brief: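 In this screen, tumor-bearing mice given compound are compared to those given vehicle, and their survival values are reported as a treated-to-control quotient.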

[1] = dose: 100.0 mg/kg/injection, schedule: Q01DX009 (ip), vehicle: saline with Tween-80
[2] = dose: 100.0 mg/kg/injection, schedule: Q04DX003 (ip), vehicle: saline with Tween-80
[3] = dose: 200.0 mg/kg/injection, schedule: Q01DX009 (ip), vehicle: saline with Tween-80
[4] = dose: 200.0 mg/kg/injection, schedule: Q04DX003 (ip), vehicle: saline with Tween-80
[5] = dose: 400.0 mg/kg/injection, schedule: Q01DX009 (ip), vehicle: saline with Tween-80
[6] = dose: 400.0 mg/kg/injection, schedule: Q04DX003 (ip), vehicle: saline with Tween-80
[7] = dose: 100.0 mg/kg/injection, schedule: Q01DX001 (ip), vehicle: Klucel (hydroxypropylcellulose) (HPC)
[8] = dose: 200.0 mg/kg/injection, schedule: Q01DX001 (ip), vehicle: Klucel (hydroxypropylcellulose) (HPC)
[9] = dose: 400.0 mg/kg/injection, schedule: Q01DX001 (ip), vehicle: Klucel (hydroxypropylcellulose) (HPC)
[10] = dose: 100.0 mg/kg/injection, schedule: Q04DX003 (ip), vehicle: Klucel (hydroxypropylcellulose) (HPC)
[11] = dose: 200.0 mg/kg/injection, schedule: Q04DX003 (ip), vehicle: Klucel (hydroxypropylcellulose) (HPC)
[12] = dose: 400.0 mg/kg/injection, schedule: Q04DX003 (ip), vehicle: Klucel (hydroxypropylcellulose) (HPC)
[13] = dose: 100.0 mg/kg/injection, schedule: Q01DX001 (ip), vehicle: saline with Tween-80
[14] = dose: 200.0 mg/kg/injection, schedule: Q01DX001 (ip), vehicle: saline with Tween-80
[15] = dose: 50.0 mg/kg/injection, schedule: Q01DX009 (ip), vehicle: saline with Tween-80
[16] = dose: 100.0 mg/kg/injection, schedule: Q04DX002 (ip), vehicle: saline with Tween-80
[17] = dose: 200.0 mg/kg/injection, schedule: Q04DX002 (ip), vehicle: saline with Tween-80
[18] = dose: 400.0 mg/kg/injection, schedule: Q04DX002 (ip), vehicle: saline with Tween-80
[19] = dose: 100.0 mg/kg/injection, schedule: Q01DX009 (ip), vehicle: saline
[20] = dose: 100.0 mg/kg/injection, schedule: Q04DX003 (ip), vehicle: saline
[21] = dose: 200.0 mg/kg/injection, schedule: Q01DX009 (ip), vehicle: saline
[22] = dose: 200.0 mg/kg/injection, schedule: Q04DX003 (ip), vehicle: saline
[23] = dose: 400.0 mg/kg/injection, schedule: Q01DX009 (ip), vehicle: saline
[24] = dose: 400.0 mg/kg/injection, schedule: Q04DX003 (ip), vehicle: saline
[25] = dose: 100.0 mg/kg/injection, schedule: Q01DX001 (ip), vehicle: saline
[26] = dose: 200.0 mg/kg/injection, schedule: Q01DX001 (ip), vehicle: saline

Measured: T/C

O=Nc1ccc(N(CCO)CCO)cc1
inactive: dose: 5.0 mg/kg/injection, schedule: Q01DX001 (ip), vehicle: saline 97 % of control | dose: 10.0 mg/kg/injection, schedule: Q01DX001 (ip), vehicle: saline 97 % of control | dose: 20.0 mg/kg/injection, schedule: Q01DX001 (ip), vehicle: saline 101 % of control | dose: 40.0 mg/kg/injection, schedule: Q01DX001 (ip), vehicle: saline 111 % of control

c1ccc(OCC2CO2)cc1 (configuration not stated)
inactive: dose: 50.0 mg/kg/injection, schedule: Q01DX001 (ip), vehicle: carboxymethylcellulose (CMC) 100 % of control | dose: 100.0 mg/kg/injection, schedule: Q01DX001 (ip), vehicle: carboxymethylcellulose (CMC) 100 % of control | [1] 96 % of control | [2] 95 % of control | dose: 200.0 mg/kg/injection, schedule: Q01DX001 (ip), vehicle: carboxymethylcellulose (CMC) 105 % of control | [3] 93 % of control | [4] 97 % of control | dose: 400.0 mg/kg/injection, schedule: Q01DX001 (ip), vehicle: carboxymethylcellulose (CMC) 97 % of control | [5] 98 % of control | [6] 97 % of control

Nc1nc(N)c2nc(CNCCc3ccccc3)cnc2n1
inactive: dose: 20.0 mg/kg/injection, schedule: Q01DX009 (ip), vehicle: Klucel (hydroxypropylcellulose) (HPC) 100 % of control | dose: 40.0 mg/kg/injection, schedule: Q01DX009 (ip), vehicle: Klucel (hydroxypropylcellulose) (HPC) 102 % of control

S=P(=Nc1ccccc1)c1ccccc1 (configuration not stated)
inactive: [7] 91 % of control | [8] 89 % of control | [9] 88 % of control

CCCCCCCCCCCCCCOc1ccc(C(=S)N2CCOCC2)cc1OC
inactive: [10] 100 % of control | [11] 100 % of control | [12] 94 % of control

O=c1c2ccccc2sc2cccc(Sc3ccccc3)c12
inactive: [1] 101 % of control | [3] 98 % of control | [5] 98 % of control

CCc1nc(Cl)c(Cl)[nH]1
inactive: [13] 107 % of control | [14] 103 % of control

CC1CCC2CON(C(C)(C)C)C2C1 (configuration not stated)
inactive: [15] 106 % of control | [1] 107 % of control | [2] 103 % of control | [4] 97 % of control and 101 % of control | [6] 94 % of control

CC[CH2][Sn]([Cl])([Cl])[CH2]CC
inactive: dose: 0.13 mg/kg/injection, schedule: Q01DX009 (ip), vehicle: saline 98 % of control | dose: 0.25 mg/kg/injection, schedule: Q01DX009 (ip), vehicle: saline 112 % of control | dose: 0.5 mg/kg/injection, schedule: Q01DX009 (ip), vehicle: saline 105 % of control and 108 % of control | dose: 1.0 mg/kg/injection, schedule: Q01DX009 (ip), vehicle: saline 101 % of control | dose: 2.0 mg/kg/injection, schedule: Q01DX009 (ip), vehicle: saline 101 % of control | dose: 4.0 mg/kg/injection, schedule: Q01DX009 (ip), vehicle: saline 104 % of control

COc1cc(C)cc(C(=O)O)c1
inactive: [16] 97 % of control | [17] 101 % of control | [18] 101 % of control

Cc1ccccc1N=Cc1cc(Cl)ccc1O
inactive: [7] 97 % of control | [10] 88 % of control | [8] 95 % of control | [11] 97 % of control | [9] 93 % of control | [12] 101 % of control

COc1cc(NC(=O)c2ccc(Cl)cc2Cl)c(OC)cc1Cl
inactive: [15] 90 % of control | [1] 90 % of control | [3] 96 % of control

O=P(CCCl)(OCCCl)N1CCCCC1 (configuration not stated)
inactive: dose: 50.0 mg/kg/injection, schedule: Q04DX003 (ip), vehicle: saline 104 % of control | [19] 93 % of control | [20] 104 % of control | [21] 96 % of control | [22] 102 % of control | [23] 88 % of control | [24] 98 % of control

Nc1ccc([N+](=O)[O-])cc1[N+](=O)[O-]
inactive: dose: 25.0 mg/kg/injection, schedule: Q04DX003 (ip), vehicle: Klucel (hydroxypropylcellulose) (HPC) 103 % of control | dose: 50.0 mg/kg/injection, schedule: Q04DX003 (ip), vehicle: Klucel (hydroxypropylcellulose) (HPC) 98 % of control | [10] 95 % of control and 105 % of control

N#CC1C(=O)NC(=O)C(C#N)C12CCN(Cc1ccccc1)CC2 (configuration not stated)
inactive: [7] 102 % of control | [8] 97 % of control | [9] 103 % of control

CSc1ccc(NC(=O)OCCOc2ccccc2)cc1
inactive: [13] 94 % of control | [1] 96 % of control and 89 % of control | [16] 99 % of control | [2] 100 % of control | [14] 94 % of control | [3] 97 % of control and 89 % of control | [17] 108 % of control | [4] 102 % of control | dose: 400.0 mg/kg/injection, schedule: Q01DX001 (ip), vehicle: saline with Tween-80 110 % of control | [5] 94 % of control and 107 % of control | [18] 89 % of control | [6] 102 % of control

CCCCCCNC(=S)Nc1ccccc1
inactive: dose: 50.0 mg/kg/injection, schedule: Q01DX001 (ip), vehicle: saline 97 % of control | [25] 103 % of control | [26] 97 % of control

COC1CCC=CO1 (configuration not stated)
inactive: dose: 13.3 mg/kg/injection, schedule: Q01DX Z (ip), vehicle: saline 93 % of control | dose: 20.0 mg/kg/injection, schedule: Q01DX Z (ip), vehicle: saline 105 % of control | dose: 30.0 mg/kg/injection, schedule: Q01DX Z (ip), vehicle: saline 109 % of control

COc1ccc(C(C#N)CC(=O)c2ccc3c(c2)OCO3)cc1OC (configuration not stated)
inactive: [19] 104 % of control | [20] 98 % of control | [21] 104 % of control | [22] 104 % of control | [23] 97 % of control | [24] 98 % of control

NC(=S)N/N=C\C(c1ccccc1)c1ccccc1
inactive: [1] 98 % of control | [2] 96 % of control | [3] 94 % of control | [4] 95 % of control | [5] 96 % of control | [6] 104 % of control

Cc1ccc2cc3c(cc(C)c4ccccc43)c3c2c1CC3
inactive: [25] 102 % of control | [26] 96 % of control | dose: 400.0 mg/kg/injection, schedule: Q01DX001 (ip), vehicle: saline 96 % of control

CC(=O)COc1cccc([N+](=O)[O-])c1
inactive: dose: 100.0 mg/kg/injection, schedule: Q01DX009 (ip), vehicle: Klucel (hydroxypropylcellulose) (HPC) 92 % of control | dose: 200.0 mg/kg/injection, schedule: Q01DX009 (ip), vehicle: Klucel (hydroxypropylcellulose) (HPC) 90 % of control | dose: 400.0 mg/kg/injection, schedule: Q01DX009 (ip), vehicle: Klucel (hydroxypropylcellulose) (HPC) 90 % of control

O=c1[nH]cn[nH]1
inactive: dose: 100.0 mg/kg/injection, schedule: Q04DX003 (ip), vehicle: saline sonified 105 % of control | dose: 200.0 mg/kg/injection, schedule: Q04DX003 (ip), vehicle: saline sonified 114 % of control | dose: 400.0 mg/kg/injection, schedule: Q04DX003 (ip), vehicle: saline sonified 101 % of control

CCOC(=O)/C(N=O)=C(\O)c1ccc2ccccc2n1
inactive: dose: 25.0 mg/kg/injection, schedule: Q01DX009 (ip), vehicle: water 115 % of control | dose: 50.0 mg/kg/injection, schedule: Q01DX009 (ip), vehicle: water 101 % of control | dose: 100.0 mg/kg/injection, schedule: Q01DX009 (ip), vehicle: water 108 % of control | dose: 200.0 mg/kg/injection, schedule: Q01DX009 (ip), vehicle: water 89 % of control | dose: 400.0 mg/kg/injection, schedule: Q01DX009 (ip), vehicle: water 94 % of control
